From PubChem BioAssay (NCI)
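These data come from cells grown in 96-well plates and exposed to compound for 48 hours at five concentrations. TGI: total growth inhibition.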

How the values were obtained:
Test in all cases: growth of human tumour cells (NCI), 48 h
A549 NSCLC = system: A549 NSCLC
SW-620 colon = system: SW-620 colon
CCRF-CEM leukemia = system: CCRF-CEM leukemia
LOX IMVI melanoma = system: LOX IMVI melanoma
IGROV1 ovarian = system: IGROV1 ovarian
MALME-3M melanoma = system: MALME-3M melanoma
U251 CNS = system: U251 CNS
NCI-H460 lung = system: NCI-H460 lung
SF-295 CNS = system: SF-295 CNS
UACC-257 melanoma = system: UACC-257 melanoma
SK-MEL-28 melanoma = system: SK-MEL-28 melanoma
MOLT-4 leukemia = system: MOLT-4 leukemia
NCI-H522 lung = system: NCI-H522 lung
OVCAR-8 ovarian = system: OVCAR-8 ovarian
SNB-75 CNS = system: SNB-75 CNS
HCT-15 colon = system: HCT-15 colon
HOP-92 NSCLC = system: HOP-92 NSCLC
CAKI-1 renal = system: CAKI-1 renal
M14 melanoma = system: M14 melanoma
SR leukemia = system: SR leukemia
K-562 leukemia = system: K-562 leukemia
ACHN renal = system: ACHN renal
KM20L2 colon = system: KM20L2 colon
RXF 393 renal = system: RXF 393 renal
NCI-H226 lung = system: NCI-H226 lung
OVCAR-3 ovarian = system: OVCAR-3 ovarian
OVCAR-5 ovarian = system: OVCAR-5 ovarian
RPMI-8226 leukemia = system: RPMI-8226 leukemia
KM12 colon = system: KM12 colon
SK-MEL-5 melanoma = system: SK-MEL-5 melanoma
SF-539 CNS = system: SF-539 CNS
OVCAR-4 ovarian = system: OVCAR-4 ovarian
SNB-19 CNS = system: SNB-19 CNS
HCC-2998 colon = system: HCC-2998 colon
SK-OV-3 ovarian = system: SK-OV-3 ovarian
HOP-62 NSCLC = system: HOP-62 NSCLC
SF-268 CNS = system: SF-268 CNS
A498 renal = system: A498 renal
TK-10 renal = system: TK-10 renal
HCT-116 colon = system: HCT-116 colon
786-0 renal = system: 786-0 renal
HT29 colon = system: HT29 colon
UACC-62 melanoma = system: UACC-62 melanoma
UO-31 renal = system: UO-31 renal
SN12C renal = system: SN12C renal
SK-MEL-2 melanoma = system: SK-MEL-2 melanoma
COLO 205 colon = system: COLO 205 colon
NCI-H23 lung = system: NCI-H23 lung
EKVX NSCLC = system: EKVX NSCLC
NCI/ADR-RES ovarian = system: NCI/ADR-RES ovarian
HL-60(TB) leukemia = system: HL-60(TB) leukemia
DU-145 prostate = system: DU-145 prostate
T-47D breast = system: T-47D breast
HS 578T breast = system: HS 578T breast
MDA-MB-231 breast = system: MDA-MB-231 breast
MDA-MB-435 = system: MDA-MB-435
BT-549 breast = system: BT-549 breast
PC-3 prostate = system: PC-3 prostate
MDA-N = system: MDA-N
MCF7 breast = system: MCF7 breast

COc1cccc(/C=N/[N-]C(N)=O)c1[O-].[OH3+].[Pd+2]
TGI (A549 NSCLC): > 100 µM | TGI (SW-620 colon): > 100 µM | TGI (CCRF-CEM leukemia): > 100 µM | TGI (LOX IMVI melanoma): > 100 µM | TGI (IGROV1 ovarian): > 100 µM | TGI (MALME-3M melanoma): > 100 µM | TGI (U251 CNS): > 100 µM | TGI (NCI-H460 lung): > 100 µM | TGI (SF-295 CNS): > 100 µM | TGI (UACC-257 melanoma): > 100 µM | TGI (SK-MEL-28 melanoma): > 100 µM | TGI (MOLT-4 leukemia): > 100 µM | TGI (NCI-H522 lung): > 100 µM | TGI (OVCAR-8 ovarian): > 100 µM | TGI (SNB-75 CNS): > 100 µM | TGI (HCT-15 colon): > 100 µM | TGI (HOP-92 NSCLC): > 100 µM | TGI (CAKI-1 renal): > 100 µM | TGI (M14 melanoma): > 100 µM | TGI (SR leukemia): > 100 µM | TGI (K-562 leukemia): > 100 µM | TGI (ACHN renal): > 100 µM | TGI (KM20L2 colon): > 100 µM | TGI (RXF 393 renal): > 100 µM | TGI (NCI-H226 lung): > 100 µM | TGI (OVCAR-3 ovarian): > 100 µM | TGI (OVCAR-5 ovarian): > 100 µM | TGI (RPMI-8226 leukemia): > 100 µM | TGI (KM12 colon): > 100 µM | TGI (SK-MEL-5 melanoma): > 100 µM | TGI (SF-539 CNS): > 100 µM | TGI (OVCAR-4 ovarian): > 100 µM | TGI (SNB-19 CNS): > 100 µM | TGI (HCC-2998 colon): > 100 µM | TGI (SK-OV-3 ovarian): > 100 µM | TGI (HOP-62 NSCLC): > 100 µM | TGI (SF-268 CNS): > 100 µM | TGI (A498 renal): > 100 µM | TGI (TK-10 renal): > 100 µM | TGI (HCT-116 colon): > 100 µM | TGI (786-0 renal): > 100 µM | TGI (HT29 colon): > 100 µM | TGI (UACC-62 melanoma): > 100 µM | TGI (UO-31 renal): > 100 µM | TGI (SN12C renal): > 100 µM | TGI (SK-MEL-2 melanoma): > 100 µM | TGI (COLO 205 colon): > 100 µM | TGI (NCI-H23 lung): > 100 µM | TGI (EKVX NSCLC): > 100 µM

CC(C)=NNc1ncnc2nc[nH]c12
TGI (A549 NSCLC): > 72.4 µM | TGI (NCI/ADR-RES ovarian): > 100 µM | TGI (SW-620 colon): > 100 µM | TGI (CCRF-CEM leukemia): > 100 µM | TGI (LOX IMVI melanoma): > 100 µM | TGI (IGROV1 ovarian): > 100 µM | TGI (HL-60(TB) leukemia): > 72.5 µM | TGI (MALME-3M melanoma): > 100 µM | TGI (DU-145 prostate): 67.8 µM | TGI (U251 CNS): > 100 µM | TGI (NCI-H460 lung): 38.9 µM | TGI (SF-295 CNS): > 100 µM | TGI (UACC-257 melanoma): > 100 µM | TGI (SK-MEL-28 melanoma): > 100 µM | TGI (T-47D breast): > 79.1 µM | TGI (MOLT-4 leukemia): > 100 µM | TGI (NCI-H522 lung): 32.2 µM | TGI (OVCAR-8 ovarian): > 100 µM | TGI (SNB-75 CNS): > 79.6 µM | TGI (HS 578T breast): 83.9 µM | TGI (HCT-15 colon): > 100 µM | TGI (HOP-92 NSCLC): > 93.8 µM | TGI (CAKI-1 renal): > 100 µM | TGI (M14 melanoma): > 100 µM | TGI (SR leukemia): > 60.8 µM | TGI (K-562 leukemia): > 100 µM | TGI (ACHN renal): > 100 µM | TGI (RXF 393 renal): > 100 µM | TGI (NCI-H226 lung): 97 µM | TGI (OVCAR-3 ovarian): 40.1 µM | TGI (OVCAR-5 ovarian): > 48.4 µM | TGI (RPMI-8226 leukemia): > 62 µM | TGI (KM12 colon): > 100 µM | TGI (MDA-MB-231 breast): > 94.3 µM | TGI (SK-MEL-5 melanoma): 48.8 µM | TGI (SF-539 CNS): > 88.9 µM | TGI (OVCAR-4 ovarian): > 100 µM | TGI (SNB-19 CNS): > 100 µM | TGI (HCC-2998 colon): 32 µM | TGI (SK-OV-3 ovarian): > 58 µM | TGI (HOP-62 NSCLC): > 76.7 µM | TGI (SF-268 CNS): > 100 µM | TGI (MDA-MB-435): > 100 µM | TGI (A498 renal): 54.2 µM | TGI (TK-10 renal): > 100 µM | TGI (BT-549 breast): > 100 µM | TGI (HCT-116 colon): > 75.4 µM | TGI (PC-3 prostate): > 100 µM | TGI (786-0 renal): > 100 µM | TGI (HT29 colon): > 100 µM | TGI (UACC-62 melanoma): 20 µM | TGI (UO-31 renal): > 87.9 µM | TGI (SN12C renal): > 100 µM | TGI (SK-MEL-2 melanoma): > 67.8 µM | TGI (MDA-N): > 100 µM | TGI (COLO 205 colon): 59.5 µM | TGI (MCF7 breast): > 100 µM | TGI (NCI-H23 lung): > 100 µM | TGI (EKVX NSCLC): 98.2 µM
